Test results as given in US20220289686A1, “COMPOSITIONS OF NRF2 INHIBITING AGENTS AND METHODS OF USE THEREOF” (Washington University, priority 2021, published 2022).
“Also recorded” adds a separate entry of the source. Where two headings read alike, the source gives them in different places.

Tests used:
Assay type in all cases: cell-based
NRF2 protein = experiment: Western blot analysis of NRF2 protein abundance and downstream targets in cell lines; conditions: for NRF2 protein abundance: western blot, 24-48 hours, PYR 10 μM, analogs 1 μM (104 in HEK293T 10 μM), MTX and PEM 0.1 μM, CG 10 μM
Description: Western Blots: KYSE70, HEK293T cells were plated and 24 hours later treated with compounds (see figure legends for details). Either at 24 or 48 hours later, cells were scrapped in RIPA buffer (0.2% deoxycholate, 0.1% SDS, 1% NP40, 150 mM NaCl, 50 mM Tris pH 7.4, 2 mM EDTA) supplemented with protease and phosphatase inhibitors, cleared at 14000×g for 15 minutes at 4° C., and supernatants were quantified by BCA assay (Pierce, 23225). Protein samples (20 μg) were prepared with 1×LDS buffer with 100 mM DTT, ran on NuPAGE 4-12% Bis-tris gels, and transferred onto a […] nitrocellulose membrane (Thermo, 88018). All blots were blocked in 5% milk in TBST for 30 minutes. After incubation of the primary antibody overnight at 4° C. and washed three times with 1×TBST, blots were incubated with LI-COR secondary antibodies for 1-2 hours, washed in 1×TBST thrice, and then imaged via a LI-COR Odyssey instrument (Li-COR, Lincoln, Nebr.).

[1] = test system: NRF2 activity in H1299-NQO1-YFP cells; experiment: NRF2 activity reporter IC50 in H1299-NQO1-YFP cells vs NRF2 pathway activators (IncuCyte, YFP/mCherry)
Description: Readings were taken every 2 hours for at least 24 hours. […] Readings were also taken every 2 hours for 96 hours in and IncuCyte S3.
YFP total intensity (correlating to NRF2 activity) was normalized to NLS-mCherry (cell number) total intensity to give a ratio (YFP/mCherry). Ratios at one time point at least 24 hours post compounds were added were used. These numbers were then plotted in Graphpad Prism to calculate IC50s. […] From three biological replicates, percent confluence was used for proliferation assays to calculate IC50s, calculations performed using Graphpad Prism.

[2] = test system: NRF2 mRNA and NRF2 target gene mRNA; experiment: RT-qPCR of NRF2 mRNA and NRF2 downstream targets in KYSE70 cells; conditions: 24 or 48 hours, PYR 10 μM, analogs 1 μM, MTX and PEM 0.1 μM
Description: qRT-PCR: Total RNA was extracted using PureLink RNA kit following the manufacturers protocol. Primers for qPCR were designed using the National Center for Biotechnology Information's (NCBI) Primer-BLAST platform. For primer sequences, see Table 2. RNA was quantified using a Nanodrop One (Thermo, Waltham, Mass.), and the reverse transcription reaction was performed using 2 μg of RNA with the iSCRIPT Clear kit with DNAse (Biorad, 170-8891). For the qRT-PCR, PowerUP SYBR Green (Thermo, A25741) was used, and data were analyzed on an AB QuantStudio 6 Flex Real Time PCR machine (Applied Biosystems, Foster City, Calif.). ΔCT values were normalized to housekeeping gene RPL13a and then normalized to DMSO for final ΔΔCT value.

[3] = Table 1, activator CDDO 0.1 μM, H1299-NQO1-YFP cells, read-out: CDDO 0.1 μM IC50 μM ± SEM
[4] = Table 1, activator SULF 2 μM, H1299-NQO1-YFP cells, read-out: SULF 2 μM IC50 μM ± SEM
[5] = Table 1 and text, average over activators CDDO, PRL295, SULF, H1299-NQO1-YFP cells, read-out: Avg IC50
[6] = Table 6 NRF2 inhibitors, read-out: Avg IC50
[7] = read-out: PRL295 5 μM IC50 AM ± SEM, Table 1, activator PRL295 5 μM, H1299-NQO1-YFP cells

SMILES | IC50 [1, 3] [µM] | IC50 [1, 4] [µM] | IC50 [1, 5] [µM] | IC50 [1, 6] [µM] | IC50 [1, 7] [µM] | other results
CCc1nc(N)nc(N)c1-c1cc(Cl)cc(Cl)c1 [WCDD114, 5-(3,5-dichlorophenyl)-6-ethylpyrimidine-2,4-diamine] | 0.134 ± 0.014 | 0.111 ± 0.009 | 0.1 | 0.108 | 0.079 ± 0.002 | NRF2 protein abundance (NRF2 protein): decrease NRF2 protein abundance; IC50 ([1]; unit inferred, read-out: IC50): 0.1 µM
CCc1nc(N)nc(N)c1-c1cccc(Cl)c1F [WCDD121, 5-(3-chloro-2-fluorophenyl)-6-ethylpyrimidine-2,4-diamine] | – | – | > 5 | > 5 | – | –
CCc1nc(N)nc(N)c1-c1ccc(S(=O)(=O)C2CCCC2)cc1 [WCDD106, 5-(4-(cyclopentylsulfonyl)phenyl)-6-ethylpyrimidine-2,4-diamine] | – | – | > 20 | > 20 | – | –
CCc1nc(N)nc(N)c1-c1ccc(S(=O)(=O)N2CC3(COC3)C2)cc1 [WCDD107, 5-(4-((2-oxa-6-azaspiro[3.3]heptan-6-yl)sulfonyl)phenyl)-6-ethylpyrimidine-2,4-diamine] | – | – | > 20 | > 20 | – | –
Nc1ncc(-c2ccc(Cl)cc2)c(N)n1 [WCDD103, 5-(4-chlorophenyl)pyrimidine-2,4-diamine] | 16.9 ± 2.56 | 12.5 ± 0.798 | 13.1 | 13.1 | 9.99 ± 0.0737 | –
CCc1ncnc(N)c1-c1cccc(Cl)c1 [WCDD125, 5-(3-chlorophenyl)-6-ethylpyrimidin-4-amine] | – | – | > 20 | > 20 | – | –
CCC1=NC(N)=NC(=O)C1c1ccc(Cl)cc1 (stereo not shown) [WCDD112, 2-amino-5-(4-chlorophenyl)-6-ethylpyrimidin-4(5H)-one] | 19.8 ± 0.338 | 10.92 ± 0.0655 | 13.9 | 13.9 | 10.8 ± 0.62 | –
CCc1nc(N)nc(N)c1-c1cc(Cl)ccc1Cl [WCDD120, 5-(2,5-dichlorophenyl)-6-ethylpyrimidine-2,4-diamine] | – | – | > 10 | > 10 | – | –
CCc1nc(N)nc(N)c1-c1cccc(N2CCCC2)c1 [WCDD122, 6-ethyl-5-(3-(pyrrolidin-1-yl)phenyl)pyrimidine-2,4-diamine] | – | – | > 5 | > 5 | – | –
CC1(C)N=C(N)N=C(N)N1c1ccc(Cl)cc1 [CG, reference compound] | – | – | – | – | – | NRF2 protein abundance (NRF2 protein): decreased; IC50 ([1]; Table 3, activator CDDO 100 nM, H1299-NQO1-YFP cells, read-out: CDDO 100 nM IC50 μM ± SEM): 1.82 ± 0.085 µM; IC50 ([1]; Table 3, activator SULF 2 μM, H1299-NQO1-YFP cells, read-out: SULF 2 μM IC50 μM ± SEM): 1.5 ± 0.0466 µM; IC50 ([1]; Table 3, average over activators, H1299-NQO1-YFP cells, read-out: Avg IC50): 1.7 µM; IC50 ([1]; read-out: PRL295 5 μM IC50 μM ± SEM, Table 3, activator PRL295 5 μM, H1299-NQO1-YFP cells): 1.57 ± 0.008 µM; NRF2 mRNA and NRF2 target gene mRNA [2]: decreased
CCc1nc(N)nc(N)c1-c1ccc(N2CC3CC3C2)cc1 (stereo not shown) [WCDD110, 5-(4-(3-azabicyclo[3.1.0]hexan-3-yl)phenyl)-6-ethylpyrimidine-2,4-diamine] | – | – | > 20 | > 20 | – | –
CCc1nc(N)nc(N)c1-c1ccc(C(C)(F)F)cc1 [WCDD105, 5-(4-(1,1-difluoroethyl)phenyl)-6-ethylpyrimidine-2,4-diamine] | 5.12 ± 0.074 | 3.279 ± 0.006 | 4.04 | 4.04 | 3.74 ± 0.499 | –
CCc1nc(N)nc(N)c1-c1cccc(Cl)c1 [WCDD104, 5-(3-chlorophenyl)-6-ethylpyrimidine-2,4-diamine] | 0.103 ± 0.001 | 0.129 ± 0.003 | 0.1 | 0.098 | 0.061 ± 0.003 | NRF2 protein on co-treatment with Bortezomib (NRF2 protein; BORT 0.04 μM co-treatment, HEK293T, H1299): demonstrated a proteasomal requirement for activity; NRF2 protein abundance (NRF2 protein): inhibition of NRF2 protein abundance and downstream target gene expression; also recorded: decrease NRF2 protein abundance; IC50 ([1]; unit inferred, read-out: IC50): 0.1 µM
CCc1nc(N)nc(N)c1-c1ccccc1 [WCDD111, 6-ethyl-5-phenylpyrimidine-2,4-diamine] | 1.1 ± 0.016 | 0.91 ± 0.01 | 1.18 | 1.18 | 1.51 ± 0.0329 | –
CCc1nc(N)nc(N)c1-c1ccc2c(c1)CCC2 [WCDD119, 5-(2,3-dihydro-1H-inden-5-yl)-6-ethylpyrimidine-2,4-diamine] | 0.614 ± 0.021 | 0.557 ± 0.03 | 0.5 | 0.57 | 0.552 ± 0.003 | –
CCc1nc(N)nc(N)c1-c1ccc(S(=O)(=O)C2CC3CC3C2)cc1 (stereo not shown) [WCDD108, 5-(4-(bicyclo[3.1.0]hexan-3-ylsulfonyl)phenyl)-6-ethylpyrimidine-2,4-diamine] | 16.9 ± 0.208 | 12.56 ± 0.103 | 14.9 | 14.9 | 15.2 ± 1.29 | –

Now from value to molecule, other results behind:

IC50 [1, 3] [µM] | IC50 [1, 4] [µM] | IC50 [1, 5] [µM] | IC50 [1, 6] [µM] | IC50 [1, 7] [µM] | SMILES | other results
0.244 ± 0.006 | 0.163 ± 0.002 | 0.248 | 0.248 | 0.334 ± 0.004 | C#CCCCc1nc(N)nc(N)c1-c1cccc(Cl)c1 [WCDD128, 5-(3-chlorophenyl)-6-(pent-4-yn-1-yl)pyrirnidine-2,4-diamine] | –
0.206 ± 0.0014 | 0.097 ± 0.003 | 0.14 | 0.14 | 0.106 ± 0.003 | C=CCCc1nc(N)nc(N)c1-c1cccc(C(F)(F)F)c1 [WCDD139, 6-(but-3-en-1-yl)-5-(3-(trifluoromethyl)phenyl)pyrimidine-2,4-diamine] | –
– | – | > 20 | – | – | NCCCc1nc(N)nc(N)c1-c1cccc(C(F)(F)F)c1 [WCDD135, 6-(3-aminopropyl)-5-(3-(trifluoromethyl)phenyl)pyrimidine-2,4-diamine] | –
– | – | > 20 | – | – | CCc1nc(N)nc(NC)c1-c1ccc(Cl)cc1 [WCDD133a, 5-(4-chlorophenyl)-6-ethyl-N4-methylpyrimidine-2,4-diamine] | –
1.84 ± 0.196 | 1.88 ± 0.024 | 1.43 | 1.43 | 1.84 ± 0.196 | Nc1ncc(-c2cccc(Cl)c2)c(N)n1 [WCDD134, 5-(3-chlorophenyl)pyrimidine-2,4-diamine] | –
0.461 ± 0.017 | 0.397 ± 0.011 | 0.514 | 0.514 | 0.683 ± 0.002 | COCCOCCc1nc(N)nc(N)c1-c1cccc(Cl)c1 [WCDD126, 5-(3-chlorophenyl)-6-(2-(2-methoxyethoxy)ethyl)pyrimidine-2,4-diamine] | –
0.469 ± 0.002 | 0.454 ± 0.006 | 0.456 | 0.456 | 0.444 ± 0.002 | Nc1nc(N)c(-c2cccc(Cl)c2)c(CC2CCC2)n1 [WCDD127, 5-(3-chlorophenyl)-6-(cyclobutylmethyl)pyrimidine-2,4-diamine] | –
– | – | > 20 | – | – | CCc1nc(NC)nc(NC)c1-c1ccc(Cl)cc1 [WCDD133, 5-(4-chlorophenyl)-6-ethyl-N2,N4-dimethylpyrimidine-2,4-diamine] | –
– | – | 4.84 | – | 4.84 ± 0.284 | Nc1nc(N)c(-c2cccc(C(F)(F)F)c2)c(CCCNC(=O)CCCC[C@H]2SCC3NC(O)NC32)n1 (stereo partly drawn) [WCDD137, N-(3-(2,6-diamino-5-(3-(trifluoromethyl)phenyl)pyrimidin-4-yl)propyl)-5-((4R)-2-hydroxyhexahydro-1H-thieno[3,4-d]imidazol-4-yl)pentanamide] | –
– | – | ~0.15 | – | 0.153 ± 0.002 | C#CCCC1(CCC(=O)NCCCc2nc(N)nc(N)c2-c2cccc(C(F)(F)F)c2)N=N1 [WCDD136, 3-(3-(but-3-yn-1-yl)-3H-diazirin-3-yl)-N-(3-(2,6-diamino-5-(3-(trifluoromethyl)phenyl)pyrimidin-4-yl)propyl)propanamide] | –
